Test results: ChEMBL document CHEMBL4000203, “Green synthesis and anticancer potential of chalcone linked-1,2,3-triazoles” (Eur J Med Chem, 2017)
Calls of active or inactive are those of the source. No cut-off for these calls is given here.

Legend:
MCF7 [1] = assay: Cytotoxicity against human MCF7 cells assessed as growth inhibition at 10 uM measured after 48 hrs by MTT assay relative to control; assay type: functional; conditions: for inhibition of growth at 10 µM: MCF7, 48 h, read-out: GI
MIA PaCa-2 [2] = assay: Cytotoxicity against human MIAPaCa2 cells assessed as growth inhibition at 10 uM measured after 48 hrs by MTT assay relative to control; assay type: functional; conditions: for inhibition of growth at 10 µM: MIA PaCa-2, 48 h, read-out: GI
A549 [3] = assay: Cytotoxicity against human A549 cells assessed as growth inhibition at 10 uM measured after 48 hrs by MTT assay relative to control; assay type: functional; conditions: for inhibition of growth at 10 µM: A549, 48 h, read-out: GI
HepG2 [4] = assay: Cytotoxicity against human HepG2 cells assessed as growth inhibition at 10 uM measured after 48 hrs by MTT assay relative to control; assay type: functional; conditions: for inhibition of growth at 10 µM: HepG2, 48 h, read-out: GI
[5] = Cytotoxicity against human FR2 cells assessed as growth inhibition at 10 uM measured after 48 hrs by MTT assay relative to control; assay type: cell-based; conditions: for inhibition at 48 h, 10 µM: FR2 cells, read-out: GI; for growth inhibition (GI): fr2, 48 h, 10 µM
MCF7 [6] = assay: Cytotoxicity against human MCF7 cells measured after 48 hrs by MTT assay; assay type: functional, cell-based; conditions: MCF7, 48 h
MIA PaCa-2 [7] = assay: Cytotoxicity against human MIAPaCa2 cells measured after 48 hrs by MTT assay; assay type: functional, cell-based; conditions: MIA PaCa-2, 48 h
A549 [8] = assay: Cytotoxicity against human A549 cells measured after 48 hrs by MTT assay; assay type: functional, cell-based; conditions: A549, 48 h
HepG2 [9] = assay: Cytotoxicity against human HepG2 cells measured after 48 hrs by MTT assay; assay type: functional, cell-based; conditions: HepG2, 48 h
[10] = Cytotoxicity against human FR2 cells measured after 48 hrs by MTT assay; assay type: cell-based; conditions: FR2, 48 h

Row | SMILES | inhibition of growth at 10 µM (MCF7 [1]) | inhibition of growth at 10 µM (MIA PaCa-2 [2]) | inhibition of growth at 10 µM (A549 [3]) | inhibition of growth at 10 µM (HepG2 [4]) | inhibition at 48 h, 10 µM [5] | growth inhibition (GI) [5] | growth inhibition (GI) (MCF7 [1]) | growth inhibition (GI) (MIA PaCa-2 [2]) | growth inhibition (GI) (A549 [3]) | growth inhibition (GI) (HepG2 [4]) | IC50 (MCF7 [6]) | IC50 (MIA PaCa-2 [7]) | IC50 (A549 [8]) | IC50 (HepG2 [9]) | IC50 [10]
1 | C#CCOc1ccc(/C=C/C(=O)c2ccc(Br)cc2)cc1 | 45% | 34% | 34% | 22% | 9% |  |  |  |  |  |  |  |  |  | 
2 | O=C(/C=C/c1ccc(OCc2cn(Cc3ccc(Br)cc3)nn2)cc1)c1ccc(Br)cc1 | 23% | 29% | 27% | 22% | 11% |  |  |  |  |  |  |  |  |  | 
3 | C#CCOc1ccc(/C=C/C(=O)c2ccc(OC)cc2)cc1 | 32% | 32% | 27% | 25% | 8% |  |  |  |  |  |  |  |  |  | 
4 | O=C(/C=C/c1ccc(OCc2cn(Cc3ccccc3Br)nn2)cc1)c1ccc([N+](=O)[O-])cc1 | 43% | 34% | 42% | 32% | 2% |  |  |  |  |  |  |  |  |  | 
5 | O=C(/C=C/c1ccc(OCc2cn(Cc3ccccc3)nn2)cc1)c1ccc(Br)cc1 | 34% | 44% | 34% | 22% | 7% |  |  |  |  |  |  |  |  |  | 
6 | COc1ccc(C(=O)/C=C/c2ccc(OCc3cn(Cc4ccc(F)cc4)nn3)cc2)cc1 | 15% | 6% | 33% | 21% |  | Non-Toxic |  |  |  |  |  |  |  |  | 
7 | O=C(/C=C/c1ccc(OCc2cn(Cc3ccccc3)nn2)cc1)c1ccc([N+](=O)[O-])cc1 |  |  |  |  |  | Non-Toxic | inactive | inactive | inactive | inactive |  |  |  |  | 
8 | COc1ccc(C(=O)/C=C/c2ccc(OCc3cn(Cc4cccc(F)c4)nn3)cc2)cc1 | 41% | 48% | 56% | 22% | 12% |  |  |  |  |  | 55 µM | 15 µM | 9 µM | 85 µM | > 100 µM
9 | COc1ccc(C(=O)/C=C/c2ccc(OCc3cn(Cc4ccccc4F)nn3)cc2)cc1 | 32% | 19% | 21% | 33% | 11% |  |  |  |  |  |  |  |  |  | 
10 | O=C(/C=C/c1ccc(OCc2cn(Cc3cccc(F)c3)nn2)cc1)c1ccc(Br)cc1 | 42% | 34% | 37% | 34% | 4% |  |  |  |  |  |  |  |  |  | 
11 | O=C(/C=C/c1ccc(OCc2cn(Cc3ccccc3Br)nn2)cc1)c1ccc(Br)cc1 | 44% | 43% | 44% | 34% | 11% |  |  |  |  |  |  |  |  |  | 
12 | Oc1cccc(-c2nc(N3CCOCC3)c3oc4ncccc4c3n2)c1 [PI-103] | 97% | 93% | 89% | 65% | 25% |  |  |  |  |  | 3 µM | 6 µM | 4 µM | 8 µM | > 50 µM
13 | COc1ccc(C(=O)/C=C/c2ccc(OCc3cn(Cc4ccccc4Br)nn3)cc2)cc1 | 60% | 50% | 52% | 44% | 7% |  |  |  |  |  | 7 µM | 10 µM | 10 µM | 20 µM | > 100 µM
14 | O=C(/C=C/c1ccc(OCc2cn(Cc3cccc(Br)c3)nn2)cc1)c1ccc([N+](=O)[O-])cc1 | 12% | 21% | 28% | 13% | 4% |  |  |  |  |  |  |  |  |  | 
15 | O=C(/C=C/c1ccc(OCc2cn(Cc3ccccc3F)nn2)cc1)c1ccc([N+](=O)[O-])cc1 | 33% | 22% | 43% | 22% | 12% |  |  |  |  |  |  |  |  |  | 
16 | COc1ccc(C(=O)/C=C/c2ccc(OCc3cn(Cc4cccc(Br)c4)nn3)cc2)cc1 | 45% | 50% | 47% | 27% | 3% |  |  |  |  |  | 20 µM | 10 µM | 15 µM | 60 µM | > 100 µM
17 | O=C(/C=C/c1ccc(OCc2cn(Cc3ccccc3F)nn2)cc1)c1ccc(Br)cc1 | 38% | 28% | 38% | 29% | 8% |  |  |  |  |  |  |  |  |  | 
18 | COc1ccc(C(=O)/C=C/c2ccc(OCc3cn(Cc4ccc(Br)cc4)nn3)cc2)cc1 | 53% | 56% | 50% | 59% | 2% |  |  |  |  |  | 9 µM | 8 µM | 10 µM | 8 µM | > 100 µM
19 | O=C(/C=C/c1ccc(OCc2cn(Cc3ccc(F)cc3)nn2)cc1)c1ccc([N+](=O)[O-])cc1 | 38% | 44% | 34% | 25% | 8% |  |  |  |  |  |  |  |  |  | 
20 | O=C(/C=C/c1ccc(OCc2cn(Cc3ccc(F)cc3)nn2)cc1)c1ccc(Br)cc1 | 37% | 32% | 43% | 22% | 7% |  |  |  |  |  |  |  |  |  | 
21 | O=C(/C=C/c1ccc(OCc2cn(Cc3cccc(Br)c3)nn2)cc1)c1ccc(Br)cc1 | 36% | 43% | 44% | 25% | 9% |  |  |  |  |  |  |  |  |  | 
22 | C#CCOc1ccc(/C=C/C(=O)c2ccc([N+](=O)[O-])cc2)cc1 | 44% | 42% | 33% | 27% | 2% |  |  |  |  |  |  |  |  |  | 
23 | O=C(/C=C/c1ccc(OCc2cn(Cc3ccc(Br)cc3)nn2)cc1)c1ccc([N+](=O)[O-])cc1 | 18% | 17% | 18% | 21% | 10% |  |  |  |  |  |  |  |  |  | 
24 | O=C(/C=C/c1ccc(OCc2cn(Cc3cccc(F)c3)nn2)cc1)c1ccc([N+](=O)[O-])cc1 | 30% | 32% | 33% | 43% | 5% |  |  |  |  |  |  |  |  |  | 
